Molecular target: human PDE1b enzyme (Homo sapiens (Human), UniProt Q01064)
Experiment: PDE1b inhibitory assay (IMAP TR-FRET)
Conditions: not given

| Structure (SMILES) | EC50 [µM] |
| --- | --- |
| O=c1n(Cc2ccc(Cl)cc2)c2sc3c(c2c2ncnn12)CCOC3 [Example 87, 6-(4-Chlorobenzyl)-6,8,10,11-tetrahydro-5H-pyrano[4′,3′:4,5]thieno[3,2-e][1,2,4]triazolo[1,5-c]pyrimidin-5-one] | 0.1 to 1 |
| COc1ccc(Cn2c(=O)n3ncnc3c3c(C)c(CO)sc32)cc1 [Example 77, 8-(Hydroxymethyl)-6-(4-methoxybenzyl)-9-methylthieno[3,2-e][1,2,4]triazolo[1,5-c]pyrimidin-5(6H)-one] | 0.1 to 1 |
| CC(C)CCc1cc2c(s1)n(Cc1ccccc1)c(=O)n1ncnc21 [Example 25, 6-Benzyl-8-isopentylthieno[3,2-e][1,2,4]triazolo[1,5-c]pyrimidin-5(6H)-one] | 0.1 to 1 |
| COc1ccc(Cn2c(=O)n3nccc3c3cc(CN4CCOCC4)sc32)cc1 [Example 82, 4-(4-Methoxybenzyl)-2-(morpholinomethyl)pyrazolo[1,5-c]thieno[3,2-e]pyrimidin-5(4H)-one] | 0.1 to 1 |
| COc1ccc(Cn2c(=O)n3ncnc3c3cc(CN4C[C@@H](C)O[C@@H](C)C4)sc32)c(F)c1F [Example 200, 6-(2,3-Difluoro-4-methoxybenzyl)-8-(((2R,6S)-2,6-dimethylmorpholino)methyl)thieno[3,2-e][1,2,4]triazolo[1,5-c]pyrimidin-5(6H)-one] | 1 to 10 |
| O=c1n(Cc2ccc(Cl)cc2F)c2sc3c(c2c2ncnn12)CCOC3 [Example 94, 6-(4-Chloro-2-fluorobenzyl)-6,8,10,11-tetrahydro-5H-pyrano[4′,3′:4,5]thieno[3,2-e][1,2,4]triazolo[1,5-c]pyrimidin-5-one] | 0.1 to 1 |
| COc1ccc(Cn2c(=O)n3ncnc3c3cc(CN4CCOCC4)sc32)c(F)c1 [Example 208, 6-(2-Fluoro-4-methoxybenzyl)-8-(morpholinomethyl)thieno[3,2-e][1,2,4]triazolo[1,5-c]pyrimidin-5(6H)-one] | 0.1 to 1 |
| COc1ccc(Cn2c(=O)n3ncnc3c3c(C)c(CN4C[C@@H](C)N[C@@H](C)C4)sc32)cc1 [Example 72, 8-(((3R,5S)-3,5-Dimethylpiperazin-1-yl)methyl)-6-(4-methoxybenzyl)-9-methylthieno[3,2-e][1,2,4]triazolo[1,5-c]pyrimidin-5(6H)-one] | 0.1 to 1 |

Same assay, conditions: negative log of half-maximal molar inhibitory concentration; 200 nM FAM-cAMP; reported as ranges

| Structure (SMILES) | PDE1b (pEC50) |
| --- | --- |
| COc1ccc(Cn2c(=O)n3ncnc3c3c4c(sc32)CN(Cc2ccncc2)CC4)cc1 [Example 121, 6-(4-Methoxybenzyl)-9-(pyridin-4-ylmethyl)-8,9,10,11-tetrahydropyrido[4′,3′:4,5]thieno[3,2-e][1,2,4]triazolo[1,5-c]pyrimidin-5(6H)-one] | >7 |
| COc1ccc(Cn2c(=O)n3ncnc3c3c(C)c(CN(C)CC4CCOC4)sc32)cc1 (stereo not shown) [Example 59, 6-(4-Methoxybenzyl)-9-methyl-8-((methyl((tetrahydrofuran-3-yl)methyl)amino)methyl)thieno[3,2-e][1,2,4]triazolo[1,5-c]pyrimidin-5(6H)-one] | >7 |
| COc1ccc(Cn2c(=O)n3ncnc3c3c(C)c(CNCC4(C)COC4)sc32)cc1 [Example 50, 6-(4-Methoxybenzyl)-9-methyl-8-((((3-methyloxetan-3-yl)methyl)amino)methyl)thieno[3,2-e][1,2,4]triazolo[1,5-c]pyrimidin-5(6H)-one] | >7 |
| COc1ccc(Cn2c(=O)n3ncnc3c3cc(CN4CCCN(C(C)=O)CC4)sc32)cc1 [Example 193, 8-((4-Acetyl-1,4-diazepan-1-yl)methyl)-6-(4-methoxybenzyl)thieno[3,2-e][1,2,4]triazolo[1,5-c]pyrimidin-5(6H)-one] | >7 |
| COc1ccc(Cn2c(=O)n3ncnc3c3c4c(sc32)CN(Cc2ccccn2)CC4)cc1 [Example 120, 6-(4-Methoxybenzyl)-9-(pyridin-2-ylmethyl)-8,9,10,11-tetrahydropyrido[4′,3′:4,5]thieno[3,2-e][1,2,4]triazolo[1,5-c]pyrimidin-5 (6H)-one] | >7 |
| COc1ccc(Cn2c(=O)n3ncnc3c3c4c(sc32)CN(CC2CCOC2)CC4)c(F)c1 (stereo not shown) [Example 140, 6-(2-Fluoro-4-methoxybenzyl)-9-((tetrahydrofuran-3-yl)methyl)-8,9,10,11-tetrahydropyrido[4′,3′:4,5]thieno[3,2-e][1,2,4]triazolo[1,5-c]pyrimidin-5(6H)-one] | >7 |
| COc1ccc(Cn2c(=O)n3ncnc3c3c(C)c(CN4CC5CC4CO5)sc32)cc1 (stereo not shown) [Example 65, 8-(2-Oxa-5-azabicyclo[2.2.1]heptan-5-ylmethyl)-6-(4-methoxybenzyl)-9-methylthieno[3,2-e][1,2,4]triazolo[1,5-c]pyrimidin-5(6H)-one] | >7 |
| COC[C@@H]1CCCN1Cc1sc2c(c1C)c1ncnn1c(=O)n2Cc1ccc(OC)cc1 [Example 58, (S)-6-(4-Methoxybenzyl)-8-((2-(methoxymethyl)pyrrolidin-1-yl)methyl)-9-methylthieno[3,2-e][1,2,4]triazolo[1,5-c]pyrimidin-5(6H)-one] | >7 |
| O=c1n(Cc2ccc(Cl)cc2F)c2sc3c(c2c2ncnn12)CCN(Cc1ncccn1)C3 [Example 132, 6-(4-Chloro-2-fluorobenzyl)-9-(pyrimidin-2-ylmethyl)-8,9,10,11-tetrahydropyrido[4′,3′:4,5]thieno[3,2-e][1,2,4]triazolo[1,5-c]pyrimidin-5 (6H)-one] | >7 |
| COc1ccc(Cn2c(=O)n3ncnc3c3c(C)c(CN4CCN(C(C)=O)CC4)sc32)cc1 [Example 51, 8-((4-Acetylpiperazin-1-yl)methyl)-6-(4-methoxybenzyl)-9-methylthieno[3,2-e][1,2,4]triazolo[1,5-c]pyrimidin-5(6H)-one] | >7 |
| COc1ccc(Cn2c(=O)n3ncnc3c3c4c(sc32)CN(CC2(C)COC2)CC4)cc1 [Example 111, 6-(4-Methoxybenzyl)-9-((3-methyloxetan-3-yl)methyl)-8,9,10,11-tetrahydropyrido[4′,3′:4,5]thieno[3,2-e][1,2,4]triazolo[1,5-c]pyrimidin-5 (6H)-one] | >7 |
| COc1ccc(Cn2c(=O)n3ncnc3c3c4c(sc32)CN(Cc2nccn2C)CC4)c(F)c1 [Example 138, 6-(2-Fluoro-4-methoxybenzyl)-9-((1-methyl-1H-imidazol-2-yl)methyl)-8,9,10,11-tetrahydropyrido[4′,3′:4,5]thieno[3,2-e][1,2,4]triazolo[1,5-c]pyrimidin-5(6H)-one] | >7 |
| COc1ccc(Cn2c(=O)n3ncnc3c3c(C)c(CN4C[C@@H](C)O[C@@H](C)C4)sc32)cc1 [Example 55, 8-(((2S,6R)-2,6-Dimethylmorpholino)methyl)-6-(4-methoxybenzyl)-9-methylthieno[3,2-e][1,2,4]triazolo[1,5-c]pyrimidin-5(6H)-one] | >7 |
| COc1ccc(Cn2c(=O)n3ncnc3c3c(C)c(CN4CCOCC4C)sc32)cc1 (stereo not shown) [Example 71, 6-(4-Methoxybenzyl)-9-methyl-8-((3-methylmorpholino)methyl)thieno[3,2-e][1,2,4]triazolo[1,5-c]pyrimidin-5(6H)-one] | >7 |

Source: US10092575B2, “Substituted thiophene- and furan-fused azolopyrimidine-5-(6H)-one compounds” (DART NEUROSCIENCE (CAYMAN) LTD., priority 2012, dated 2018)
